Assay results taken from patent publication US20110288042A1, “STABLE HIGHLY PURE AZACITIDINE AND PREPARATION METHODS THEREFOR” (CHEMAGIS LTD., priority 2007, published 2011).

Legend:
[1] = Induced degradation of 5-azacytidine in liquid state (HPLC); format: physicochemical
Method: (§1) The HPLC measurements were performed using a system equipped with an Inertsil C18 column (ODS-2, 5 microns, 250×4.6 mm (ODS-167)). Other parameters of the system were as follows: • Detection: UV detector operated on 242 nm • Column temperature: 20° C. • Run time: 45 minutes • Injection volume: 10 μl • Flow rate: 1.0 ml/minute • Sample set temperature: 5° C. • Sample concentration: about 1.65 mg/ml • Diluent: Mixture of 30% 10 mM ammonium acetate and 70% THF
(§2) Analyses were performed using the following mobile phase • Mobile Phase (Eluent) A: 10 mM ammonium acetate • Mobile Phase (Eluent) B: 60% 10 mM ammonium acetate, 40% MeOH
Acidic hydrolysis—blank preparation: Hydrochloric acid (5 ml, 0.01M HCl) was diluted to 10 ml with the diluent. […] An aliquot (5 ml) was diluted to 10 ml with the diluent. The blank preparation and sample preparation were injected to the HPLC system by using the chromatographic conditions as mentioned in example 8. • Basic hydrolysis—blank preparation: Sodium hydroxide (5 ml, 0.01M NaOH) was diluted to 10 ml with the diluent. […] An aliquot (5 ml) was diluted to 10 ml with diluent. […] An aliquot (5 ml) was diluted to 10 ml with the diluent. The blank and sample preparations were injected to the HPLC system using the chromatographic conditions as detailed in example 8. • Photolysis—blank preparation: The diluent (50 ml) was mixed under UV light for 48 hours. […] The blank preparation and sample preparation were injected to the HPLC system using the chromatographic conditions as mentioned in example 8.

[2] = Solution stability of 5-azacytidine in the HPLC diluent; format: physicochemical; details: HPLC diluent, about 1.65 mg/ml
Method: as §1, §2

[3] = Acidic: 0.01M HCl, room temperature, about 1 hour
[4] = Basic: 0.01M NaOH, room temperature, about 1 hour
[5] = Oxidation: 10% hydrogen peroxide solution, room temperature, about 1 hour
[6] = Photolysis: in the diluent, UV light 48 hours

Area (%) at RRT 1.00 (5-azacytidine) [1, 3]: 71.96% | Area (%) of peak at RRT 0.33 [1, 3]: 0.17% | Area (%) of peak at RRT 0.63 [1, 3]: 21.1% | Area (%) of peak at RRT 1.18 [1, 3]: 5.35% | Area (%) of peak at RRT 1.65 [1, 3]: 0.14% | Area (%) of peak at RRT 2.01 [1, 3]: 1.10% | Total impurities (%) [1, 3]: 28.04% | Area (%) at RRT 1.00 (5-azacytidine) [1, 4]: 3.38% | Area (%) of peak at RRT 0.33 [1, 4]: 89.92% | Area (%) of peak at RRT 0.42 [1, 4]: 3.97% | Total impurities (%) [1, 4]: 96.62% | Area (%) at RRT 1.00 (5-azacytidine) [1, 5]: 97.18% | Area (%) of peak at RRT 0.33 [1, 5]: 0.84% | Area (%) of peak at RRT 0.42 [1, 5]: 0.06% | Area (%) of peak at RRT 0.63 [1, 5]: 0.23% | Area (%) of peak at RRT 2.01 [1, 5]: 1.62% | Total impurities (%) [1, 5]: 2.82% | Area (%) at RRT 1.00 (5-azacytidine) [1, 6]: 61.64% | Area (%) of peak at RRT 0.33 [1, 6]: 0.85% | Area (%) of peak at RRT 0.39 [1, 6]: 0.11% | Area (%) of peak at RRT 0.42 [1, 6]: 0.20% | Area (%) of peak at RRT 0.63 [1, 6]: 35.24% | Area (%) of peak at RRT 1.18 [1, 6]: 0.46% | Area (%) of peak at RRT 1.65 [1, 6]: 0.39% | Area (%) of peak at RRT 2.01 [1, 6]: 0.86% | Area (%) of peak at RRT 2.05 [1, 6]: 0.17% | Total impurities (%) [1, 6]: 38.36% | Area (%) at RRT 1.00 (5-azacytidine) ([1]; Storage (reference sample)): 96.72% | Area (%) of peak at RRT 0.63 ([1]; Storage (reference sample)): 1.55% | Area (%) of peak at RRT 2.01 ([1]; Storage (reference sample)): 1.37% | Area (%) of peak at RRT 2.05 ([1]; Storage (reference sample)): 0.24% | Total impurities (%) ([1]; Storage (reference sample)): 3.28% | Degradation in liquid state (HPLC analysis) ([1]; liquid state, Table 9): significant degradation | Area (%) at RRT 1.00 (5-azacytidine) ([2]; 0 hours): 96.72% | Area (%) of peak at RRT 0.63 ([2]; 0 hours): 1.55% | Area (%) of peak at RRT 2.01 ([2]; 0 hours): 1.37% | Area (%) of peak at RRT 2.05 ([2]; 0 hours): 0.24% | Total impurities by % area ([2]; 0 hours): 3.28% | Area (%) at RRT 1.00 (5-azacytidine) ([2]; 4 hours): 96.21% | Area (%) of peak at RRT 0.63 ([2]; 4 hours): 2.04% | Area (%) of peak at RRT 2.01 ([2]; 4 hours): 1.41% | Area (%) of peak at RRT 2.05 ([2]; 4 hours): 0.24% | Total impurities by % area ([2]; 4 hours): 3.79% | Area (%) at RRT 1.00 (5-azacytidine) ([2]; 5 hours): 96.11% | Area (%) of peak at RRT 0.63 ([2]; 5 hours): 2.16% | Area (%) of peak at RRT 2.01 ([2]; 5 hours): 1.37% | Area (%) of peak at RRT 2.05 ([2]; 5 hours): 0.24% | Total impurities by % area ([2]; 5 hours): 3.89% | Area (%) at RRT 1.00 (5-azacytidine) ([2]; 6 hours): 96.00% | Area (%) of peak at RRT 0.63 ([2]; 6 hours): 2.30% | Area (%) of peak at RRT 2.01 ([2]; 6 hours): 1.36% | Area (%) of peak at RRT 2.05 ([2]; 6 hours): 0.24% | Total impurities by % area ([2]; 6 hours): 4.00% | Area (%) at RRT 1.00 (5-azacytidine) ([2]; 7 hours): 95.85% | Area (%) of peak at RRT 0.63 ([2]; 7 hours): 2.43% | Area (%) of peak at RRT 2.01 ([2]; 7 hours): 1.37% | Area (%) of peak at RRT 2.05 ([2]; 7 hours): 0.23% | Total impurities by % area ([2]; 7 hours): 4.15% | Area (%) at RRT 1.00 (5-azacytidine) ([2]; 8 hours): 95.74% | Area (%) of peak at RRT 0.63 ([2]; 8 hours): 2.55% | Area (%) of peak at RRT 2.01 ([2]; 8 hours): 1.37% | Area (%) of peak at RRT 2.05 ([2]; 8 hours): 0.24% | Total impurities by % area ([2]; 8 hours): 4.26% | Area (%) at RRT 1.00 (5-azacytidine) ([2]; 9 hours): 95.63% | Area (%) of peak at RRT 0.63 ([2]; 9 hours): 2.66% | Area (%) of peak at RRT 2.01 ([2]; 9 hours): 1.37% | Area (%) of peak at RRT 2.05 ([2]; 9 hours): 0.24% | Total impurities by % area ([2]; 9 hours): 4.37% | Area (%) at RRT 1.00 (5-azacytidine) ([2]; 10 hours): 95.50% | Area (%) of peak at RRT 0.63 ([2]; 10 hours): 2.77% | Area (%) of peak at RRT 2.01 ([2]; 10 hours): 1.37%
SMILES: Nc1ncn([C@@H]2O[C@H](CO)[C@@H](O)[C@H]2O)c(=O)n1 [5-azacytidine, 4-amino-1-β-D-ribofuranosyl-1,3,5-s-triazine-2(1H)-one]
